Columns and labels:
[1] = target: T1, Aldehyde dehydrogenase 1, mitochondrial (Saccharomyces cerevisiae, UniProt P22281); assay: Inhibition of yeast aldehyde dehydrogenase by spectrophotometry following NADH formation at 340 nm
T1 sequence (P22281 whole entry): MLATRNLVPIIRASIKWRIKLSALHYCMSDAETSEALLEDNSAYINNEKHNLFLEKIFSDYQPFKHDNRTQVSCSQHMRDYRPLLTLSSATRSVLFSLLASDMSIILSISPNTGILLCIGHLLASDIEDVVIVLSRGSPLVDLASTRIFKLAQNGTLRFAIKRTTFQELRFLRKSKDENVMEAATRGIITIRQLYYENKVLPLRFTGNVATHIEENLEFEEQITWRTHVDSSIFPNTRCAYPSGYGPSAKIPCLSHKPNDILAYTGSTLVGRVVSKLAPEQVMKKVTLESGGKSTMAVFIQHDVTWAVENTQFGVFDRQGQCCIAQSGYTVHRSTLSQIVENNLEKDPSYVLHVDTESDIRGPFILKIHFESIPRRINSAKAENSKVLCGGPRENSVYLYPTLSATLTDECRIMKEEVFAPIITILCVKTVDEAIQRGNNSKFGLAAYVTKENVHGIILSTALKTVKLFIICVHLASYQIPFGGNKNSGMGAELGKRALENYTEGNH

[2] = target: T2, Aldehyde dehydrogenase 1, mitochondrial (Saccharomyces cerevisiae) (UniProt P22281); assay: Inhibition of yeast aldehyde dehydrogenase at 0.5 mM by spectrophotometry following NADH formation at 340 nm
T2 sequence (whole entry): T1 sequence (P22281 whole entry)

SMILES	IC50 [1] [µM]	inhibition [2] [%]
CCCCCC/C=C/C(=O)CCCCCCC(=O)OCC	170	
CCCCCCCC/C=C/C(=O)CCCCCCC(=O)OCC	430	
CCCCC/C=C/C=C/C(=O)CCCCCCCC(=O)O		< 50
CCCCCCCC/C=C/C(=O)CCCCCCC(=O)O	280	
CCCCCC(=O)/C=C/C=C/CCCCCCCC(=O)OCC(O)CO (stereo not given)		< 50

Source: ChEMBL document CHEMBL1150143, “Aldehyde dehydrogenase inhibitors from the mushroom Clitocybe clavipes” (J Nat Prod, 2002)
